Reference: patent US9833497B2, “Human originated EGF domain proteins and use of the same” (CHENGDU SOURCEBIO LIMITED-LIABILITY COMPANY, priority 2013, dated 2017)

Assays:
Assay type in all cases: cell-based
Serratia marcescens = assay: MIC against Gram-negative bacteria: Serratia marcescens; conditions: 5×10^5 CFU/mL
Outline: (§1)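 Two-fold serial dilutions of each purified human EGF domain protein, three replicate wells per level, were combined with bacteria at a final 5×10^5 CFU/mL in LB. Cultures were shaken at 175 rpm, 37° C. The MIC was taken as the minimum concentration preventing growth.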

Proteus vulgaris = assay: MIC against Gram-negative bacteria: Proteus vulgaris; conditions: 5×10^5 CFU/mL
Outline: as §1

E. coli BL21 = assay: MIC against Gram-negative bacteria: E. coli BL21; conditions: 5×10^5 CFU/mL
Outline: as §1

Enterobacter cloacae = assay: MIC against Gram-negative bacteria: Enterobacter cloacae; conditions: 5×10^5 CFU/mL
Outline: as §1

E. coli DH5α = assay: Antibacterial activity: MIC and growth curve against E. coli DH5α in 96-well plate; conditions: minimal inhibitory concentration against E. coli DH5α; 96-well plate, 5×10^5 CFU/mL, 37° C., judged after 8 h
Outline: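 MIC taken as lowest protein level with no bacterial growth, tracked by A600 every 30 min during 37 °C, 175 rpm culture. Two-fold protein series 50-12.5 μg/mL final, triplicate wells, against 5×10^5 CFU/mL of LB-washed mid-log cells.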

Moraxella catarrhalis = assay: MIC against Gram-negative bacteria: Moraxella catarrhalis; conditions: 5×10^5 CFU/mL
Outline: as §1

Pseudomonas aeruginosa = assay: MIC against Gram-negative bacteria: Pseudomonas aeruginosa; conditions: 5×10^5 CFU/mL
Outline: as §1

Proteus mirabilis = assay: MIC against Gram-negative bacteria: Proteus mirabilis; conditions: 5×10^5 CFU/mL
Outline: as §1

Citrobacter diversus = assay: MIC against Gram-negative bacteria: Citrobacter diversus; conditions: 5×10^5 CFU/mL
Outline: as §1

Klebsiella pneumonia = assay: MIC against Gram-negative bacteria: Klebsiella pneumonia; conditions: 5×10^5 CFU/mL
Outline: as §1

Aeromonas hydrophila = assay: MIC against Gram-negative bacteria: Aeromonas hydrophila; conditions: 5×10^5 CFU/mL
Outline: as §1

[1] = 10 h cultivation at 37° C., two-fold serial dilution
[2] = Serratia marcescens, 96-well plate, 37° C., 10 h
[3] = Proteus vulgaris, 96-well plate, 37° C., 10 h
[4] = Enterobacter cloacae, 96-well plate, 37° C., 10 h
[5] = Moraxella catarrhalis, 96-well plate, 37° C., 10 h
[6] = Pseudomonas aeruginosa, 96-well plate, 37° C., 10 h
[7] = Proteus mirabilis, 96-well plate, 37° C., 10 h
[8] = Citrobacter diversus, 96-well plate, 37° C., 10 h
[9] = Klebsiella pneumonia, 96-well plate, 37° C., 10 h
[10] = Aeromonas hydrophila, 96-well plate, 37° C., 10 h

## PRT1103 (DHDECASSPCQNGAVCQDGIDGYSCFCVPGYQGRHCD; listed as Homo sapiens)
Serratia marcescens; [1]
  MIC S. marcescens: 12.5 µg/mL
Proteus vulgaris; [1]
  MIC P. vulgaris: 25 µg/mL
E. coli BL21; [1]
  MIC E. coli BL21: 25 µg/mL
Enterobacter cloacae; [1]
  MIC E. cloacae: 50 µg/mL
E. coli DH5α
  MIC: 12.5 µg/mL
Moraxella catarrhalis; [1]
  MIC M. catarrhalis: 25 µg/mL
Pseudomonas aeruginosa; [1]
  MIC P. aeruginosa: 12.5 µg/mL
Proteus mirabilis; [1]
  MIC P. mirabilis: 50 µg/mL
Citrobacter diversus; [1]
  MIC C. diversus: 12.5 µg/mL
Klebsiella pneumonia; [1]
  MIC K. pneumonia: 25 µg/mL
Aeromonas hydrophila; [1]
  MIC A. hydrophila: 25 µg/mL

## PRT1095 (EVQWCGFSPCPHGAQCQPVLQGFECIANAVFNGQSGQ; listed as Homo sapiens)
Serratia marcescens; [1]
  MIC S. marcescens: 50 µg/mL
Proteus vulgaris; [1]
  MIC P. vulgaris: 12.5 µg/mL
E. coli BL21; [1]
  MIC E. coli BL21: 12.5 µg/mL
Enterobacter cloacae; [1]
  MIC E. cloacae: 12.5 µg/mL
E. coli DH5α
  MIC: 50 µg/mL
Moraxella catarrhalis; [1]
  MIC M. catarrhalis: 50 µg/mL
Pseudomonas aeruginosa; [1]
  MIC P. aeruginosa: 50 µg/mL
Proteus mirabilis; [1]
  MIC P. mirabilis: 25 µg/mL
Citrobacter diversus; [1]
  MIC C. diversus: 25 µg/mL
Klebsiella pneumonia; [1]
  MIC K. pneumonia: 25 µg/mL
Aeromonas hydrophila; [1]
  MIC A. hydrophila: 25 µg/mL

## PRT80 (TNVCDLNPCEHQSVCTRKPSAPHGYTCECPPNYLGPYCE; listed as Homo sapiens)
Serratia marcescens; [2]
  MIC (μg/mL) S. marcescens: 12.5 µg/mL
Proteus vulgaris; [3]
  MIC (μg/mL) P. vulgaris: 12.5 µg/mL
E. coli BL21; 96-well plate, 37° C., 10 h
  MIC (μg/mL) E. coli BL21: 50 µg/mL
Enterobacter cloacae; [4]
  MIC (μg/mL) E. cloacae: 12.5 µg/mL
E. coli DH5α
  MIC: 12.5 µg/mL
Moraxella catarrhalis; [5]
  MIC (μg/mL) M. catarrhalis: 25 µg/mL
Pseudomonas aeruginosa; [6]
  MIC (μg/mL) P. aeruginosa: 12.5 µg/mL
Proteus mirabilis; [7]
  MIC (μg/mL) P. mirabilis: 12.5 µg/mL
Citrobacter diversus; [8]
  MIC (μg/mL) C. diversus: 12.5 µg/mL
Klebsiella pneumonia; [9]
  MIC (μg/mL) K. pneumonia: 25 µg/mL
Aeromonas hydrophila; [10]
  MIC (μg/mL) A. hydrophila: 25 µg/mL

## PRT596 (CDCDPRTSQSSHCDQLTGQCPCKLGYGGKRCSECQENYYGDPPGRCIP; listed as Homo sapiens)
Serratia marcescens; 96-well plate, 37° C., 10 h
  MIC S. marcescens: 50 µg/mL
Proteus vulgaris; 96-well plate, 37° C., 10 h
  MIC P. vulgaris: 25 µg/mL
E. coli BL21; 96-well plate, 37° C., 10 h
  MIC E. coli BL21: 25 µg/mL
Enterobacter cloacae; 96-well plate, 37° C., 10 h
  MIC E. cloacae: 12.5 µg/mL
E. coli DH5α
  MIC: 12.5 µg/mL
Moraxella catarrhalis; 96-well plate, 37° C., 10 h
  MIC M. catarrhalis: 25 µg/mL
Pseudomonas aeruginosa; 96-well plate, 37° C., 10 h
  MIC P. aeruginosa: 50 µg/mL
Proteus mirabilis; 96-well plate, 37° C., 10 h
  MIC P. mirabilis: 12.5 µg/mL
Citrobacter diversus; 96-well plate, 37° C., 10 h
  MIC C. diversus: 50 µg/mL
Klebsiella pneumonia; 96-well plate, 37° C., 10 h
  MIC K. pneumonia: 25 µg/mL
Aeromonas hydrophila; 96-well plate, 37° C., 10 h
  MIC A. hydrophila: 25 µg/mL

## PRT253 (DYCSQNTCLNGGKCSWTHGAGYVCKCPPQFSGKHCE; listed as Homo sapiens)
Serratia marcescens; S. marcescens, 10 h cultivation at 37° C.
  MIC (μg/mL) S. marcescens: 12.5 µg/mL
Proteus vulgaris; P. vulgaris, 10 h cultivation at 37° C.
  MIC (μg/mL) P. vulgaris: 25 µg/mL
E. coli BL21; 10 h cultivation at 37° C.
  MIC (μg/mL) E. coli BL21: 25 µg/mL
Enterobacter cloacae; E. cloacae, 10 h cultivation at 37° C.
  MIC (μg/mL) E. cloacae: 12.5 µg/mL
E. coli DH5α
  MIC: 12.5 µg/mL
Moraxella catarrhalis; M. catarrhalis, 10 h cultivation at 37° C.
  MIC (μg/mL) M. catarrhalis: 25 µg/mL
Pseudomonas aeruginosa; P. aeruginosa, 10 h cultivation at 37° C.
  MIC (μg/mL) P. aeruginosa: 12.5 µg/mL
Proteus mirabilis; P. mirabilis, 10 h cultivation at 37° C.
  MIC (μg/mL) P. mirabilis: 12.5 µg/mL
Citrobacter diversus; C. diversus, 10 h cultivation at 37° C.
  MIC (μg/mL) C. diversus: 12.5 µg/mL
Klebsiella pneumonia; K. pneumonia, 10 h cultivation at 37° C.
  MIC (μg/mL) K. pneumonia: 25 µg/mL
Aeromonas hydrophila; A. hydrophila, 10 h cultivation at 37° C.
  MIC (μg/mL) A. hydrophila: 25 µg/mL

## PRT1311 (LLDPCSKNNGGCSPYATCKSTGDGQRTCTCDTAHTVGDGLTCR; listed as Homo sapiens)
Serratia marcescens; [2]
  MIC against S. marcescens: 25 µg/mL
Proteus vulgaris; [3]
  MIC against P. vulgaris: 25 µg/mL
E. coli BL21; 96-well plate, 37° C., 10 h
  MIC against E. coli BL21: 25 µg/mL
Enterobacter cloacae; [4]
  MIC against E. cloacae: 50 µg/mL
E. coli DH5α
  MIC: 50 µg/mL
Moraxella catarrhalis; [5]
  MIC against M. catarrhalis: 25 µg/mL
Pseudomonas aeruginosa; [6]
  MIC against P. aeruginosa: 12.5 µg/mL
Proteus mirabilis; [7]
  MIC against P. mirabilis: 12.5 µg/mL
Citrobacter diversus; [8]
  MIC against C. diversus: 50 µg/mL
Klebsiella pneumonia; [9]
  MIC against K. pneumonia: 25 µg/mL
Aeromonas hydrophila; [10]
  MIC against A. hydrophila: 12.5 µg/mL

## PRT1460 (CDCDTVGTRNGSILCDQIGGQCNCKRHVSGRQCNQCQNGFYNLQELDPDGCSP; listed as Homo sapiens)
Serratia marcescens; Serratia marcescens, 10 h cultivation at 37° C.
  MIC against S. marcescens: 50 µg/mL
Proteus vulgaris; Proteus vulgaris, 10 h cultivation at 37° C.
  MIC against P. vulgaris: 25 µg/mL
E. coli BL21; 10 h cultivation at 37° C.
  MIC against E. coli BL21: 25 µg/mL
Enterobacter cloacae; Enterobacter cloacae, 10 h cultivation at 37° C.
  MIC against E. cloacae: 25 µg/mL
E. coli DH5α
  MIC: 12.5 µg/mL
Moraxella catarrhalis; Moraxella catarrhalis, 10 h cultivation at 37° C.
  MIC against M. catarrhalis: 50 µg/mL
Pseudomonas aeruginosa; Pseudomonas aeruginosa, 10 h cultivation at 37° C.
  MIC against P. aeruginosa: 25 µg/mL
Proteus mirabilis; Proteus mirabilis, 10 h cultivation at 37° C.
  MIC against P. mirabilis: 12.5 µg/mL
Citrobacter diversus; Citrobacter diversus, 10 h cultivation at 37° C.
  MIC against C. diversus: 25 µg/mL
Klebsiella pneumonia; Klebsiella pneumonia, 10 h cultivation at 37° C.
  MIC against K. pneumonia: 50 µg/mL
Aeromonas hydrophila; Aeromonas hydrophila, 10 h cultivation at 37° C.
  MIC against A. hydrophila: 12.5 µg/mL
